The target of test [1] is T1, WRN [UniPro: Q14191 (WRN_HUMAN), N500-C946] (Homo sapiens (Human), UniProt Q14191). Nature of the test: WRN ATPase assay (ADP-Glo). It is filed as biochemical. The note with it: WRN enzymatic activity assay. For orientation: In ADP-Glo the light output rises with the ADP produced.
Test [2] concerns the target T1, WRN [UniPro: Q14191 (WRN_HUMAN), N500-C946]. Nature of the test: WRN unwinding assay (FORKF DNA, fluorescence). It is filed as biochemical. The note with it: Table 14.

The values below come from patent US20260015358A1, “BICYCLIC DERIVATIVES, COMPOSITIONS AND USES THEREOF” (Danatlas Pharmaceuticals Co., Ltd., priority 2023, published 2026).

T1 sequence (Q14191 500-946): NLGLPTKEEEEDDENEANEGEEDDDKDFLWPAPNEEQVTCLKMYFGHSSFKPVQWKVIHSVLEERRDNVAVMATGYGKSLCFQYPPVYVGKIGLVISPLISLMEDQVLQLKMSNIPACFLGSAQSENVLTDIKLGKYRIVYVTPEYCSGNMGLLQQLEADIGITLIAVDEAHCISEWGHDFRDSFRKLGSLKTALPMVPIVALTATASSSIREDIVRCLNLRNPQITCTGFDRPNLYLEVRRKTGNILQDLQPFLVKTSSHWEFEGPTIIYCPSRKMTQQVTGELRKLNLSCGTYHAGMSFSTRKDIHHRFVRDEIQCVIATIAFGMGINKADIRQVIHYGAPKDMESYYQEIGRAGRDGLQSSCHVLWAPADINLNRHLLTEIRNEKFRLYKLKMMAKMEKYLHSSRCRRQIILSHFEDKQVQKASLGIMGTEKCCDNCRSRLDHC

A word on the IC50: it is the midpoint of a concentration-inhibition curve. High values mean a need for much substance, low ones inhibition by little substance. Regarding `[2H]C([2H])(NC(=O)c1ccccc1F)C(=O)N1CCN(c2c(CC)n(C([2H])([2H])C(=O)Nc3ccc(C(F)(F)F)cc3F)c3nc(C4=CCOCC4)nn3c2=O)CC1` [Example 225, N-(2-(4-(2-(3,6-Dihydro-2H-pyran-4-yl)-5-ethyl-4-(2-((2-fluoro-4-(trifluoromethyl)phenyl)amino)-2-oxoethyl-1,1-d2)-7-oxo-4,7-dihydro-[1,2,4]triazolo[1,5-a]pyrimidin-6-yl)piperazin-1-yl)-2-oxoethyl-1,1-d2)-2-fluorobenzamide], the 50% inhibitory concentration (IC50) in test [1] and in test [2] was below 100 nM each time.

As for `CCc1c(N2CCN(C(=O)CNC(=O)[C@H]3CCCO3)CC2)c(=O)n2nc(C3=CCOCC3)nc2n1CC(=O)Nc1ccc(C(F)(F)F)cc1Cl` [Example 321, (R)—N-(2-(4-(4-(2-((2-Chloro-4-(trifluoromethyl)phenyl)amino)-2-oxoethyl)-2-(3,6-dihydro-2H-pyran-4-yl)-5-ethyl-7-oxo-4,7-dihydro-[1,2,4]triazolo[1,5-a]pyrimidin-6-yl)piperazin-1-yl)-2-oxoethyl)tetrahydrofuran-2-carboxamide], the values for the IC50 in test [1] and in test [2] were 100 to 1000 nM and below 100 nM, respectively.

As for `CCc1c(N2CCN(C(=O)CNC(=O)c3ccns3)CC2)c(=O)n2nc(C3=CCOCC3)nc2n1CC(=O)Nc1ccc(C(F)(F)F)cc1F` [Example 219, N-(2-(4-(2-(3,6-Dihydro-2H-pyran-4-yl)-5-ethyl-4-(2-((2-fluoro-4-(trifluoromethyl)phenyl)amino)-2-oxoethyl)-7-oxo-4,7-dihydro-[1,2,4]triazolo[1,5-a]pyrimidin-6-yl)piperazin-1-yl)-2-oxoethyl)isothiazole-5-carboxamide], the IC50 in test [1] and in test [2] was below 100 nM each time.

In the case of `CCc1c(N2CCN(C(=O)c3nc4ccccc4cc3N)CC2)c(=O)n2nc(C3=CCOCC3)nc2n1CC(=O)Nc1ccc(C(F)(F)F)cc1Cl` [Example 307, 2-(6-(4-(3-Aminoquinoline-2-carbonyl)piperazin-1-yl)-2-(3,6-dihydro-2H-pyran-4-yl)-5-ethyl-7-oxo-[1,2,4]triazolo[1,5-a]pyrimidin-4(7H)-yl)-N-(2-chloro-4 (trifluoromethyl)phenyl)acetamide], the half-inhibitory concentration (IC50) in test [1] was 100 to 1000 nM; in test [2], below 100 nM.

Consider `CCc1c(N2CCN(C(=O)c3c[nH][nH]c3=O)CC2)c(=O)n2nc(C3=CCOCC3)nc2n1CC(=O)Nc1ccc(C(F)(F)F)cc1Cl` [Example 63, N-(2-Chloro-4-(trifluoromethyl)phenyl)-2-(2-(3,6-dihydro-2H-pyran-4-yl)-5-ethyl-7-oxo-6-(4-(3-oxo-2,3-dihydro-1H-pyrazole-4-carbonyl)piperazin-1-yl)-[1,2,4]triazolo[1,5-a]pyrimidin-4(7H)-yl)acetamide], for which the IC50 in test [1] and in test [2] was below 100 nM throughout.

With `CCc1c(N2CCN(C(=O)c3nc4ccccc4cc3O)CC2)c(=O)n2nc(C3=CCOCC3)nc2n1CC(=O)Nc1ccc(C(F)(F)F)cc1Cl` [Example 306, N-(2-Chloro-4-(trifluoromethyl)phenyl)-2-(2-(3,6-dihydro-2H-pyran-4-yl)-5-ethyl-6-(4-(3-hydroxyquinoline-2-carbonyl)piperazin-1-yl)-7-oxo-[1,2,4]triazolo[1,5-a]pyrimidin-4(7H)-yl)acetamide], the half-inhibitory concentration (IC50) in test [1] and in test [2] was below 100 nM in each case.

For the compound `CCNc1ccc(F)c(C(=O)NCC(=O)N2CCN(c3c(CC)n(CC(=O)Nc4ccc(C(F)(F)F)cc4Cl)c4nc(C5=CCOCC5)nn4c3=O)CC2)c1` [Example 374, N-(2-(4-(4-(2-((2-Chloro-4-(trifluoromethyl)phenyl)amino)-2-oxoethyl)-2-(3,6-dihydro-2H-pyran-4-yl)-5-ethyl-7-oxo-4,7-dihydro-[1,2,4]triazolo[1,5-a]pyrimidin-6-yl)piperazin-1-yl)-2-oxoethyl)-5-(ethylamino)-2-fluorobenzamide], the 50% inhibitory concentration (IC50) in test [1] and in test [2] was below 100 nM each time.

On to `CCc1c(N2CCN(C(=O)CNC(=O)CC3CCCO3)CC2)c(=O)n2nc(C3=CCOCC3)nc2n1CC(=O)Nc1ccc(C(F)(F)F)cc1Cl` (stereo not drawn) [Example 338, N-(2-Chloro-4-(trifluoromethyl)phenyl)-2-(2-(3,6-dihydro-2H-pyran-4-yl)-5-ethyl-7-oxo-6-(4-((2-(tetrahydrofuran-2-yl)acetyl)glycyl)piperazin-1-yl)-[1,2,4]triazolo[1,5-a]pyrimidin-4(7H)-yl)acetamide], for which the IC50 in test [1] and in test [2] was below 100 nM throughout.

Take `CCc1c(N2CCN(C(=O)c3nnc(C(F)F)[nH]3)CC2)c(=O)n2nc(C3=CCOCC3)nc2n1CC(=O)Nc1ccc(C(F)(F)F)cc1F` [Example 310, 2-(6-(4-(5-(Difluoromethyl)-4H-1,2,4-triazole-3-carbonyl)piperazin-1-yl)-2-(3,6-dihydro-2H-pyran-4-yl)-5-ethyl-7-oxo-[1,2,4]triazolo[1,5-a]pyrimidin-4(7H)-yl)-N-(2-fluoro-4-(trifluoromethyl)phenyl)acetamide]: the IC50 in test [1] and in test [2] was below 100 nM in each case.

For `CCc1c(N2CCN(C(=O)CNC(=O)c3ccc(F)cc3F)CC2)c(=O)n2nc(C3=CCOCC3)nc2n1CC(=O)Nc1ccc(C(F)(F)F)cc1Cl` [Example 117, N-(2-(4-(4-(2-((2-Chloro-4-(trifluoromethyl)phenyl)amino)-2-oxoethyl)-2-(3,6-dihydro-2H-pyran-4-yl)-5-ethyl-7-oxo-4,7-dihydro-[1,2,4]triazolo[1,5-a]pyrimidin-6-yl)piperazin-1-yl)-2-oxoethyl)-2,4-difluorobenzamide], the half-inhibitory concentration (IC50) in test [1] and in test [2] was below 100 nM in each case.

`CCc1c(N2CCN(C(=O)c3cnc4c(ccn4C)c3O)CC2)c(=O)n2nc(C3=CCOCC3)nc2n1CC(=O)Nc1ccc(C(F)(F)F)cc1Cl` [Example 77, N-(2-Chloro-4-(trifluoromethyl)phenyl)-2-(2-(3,6-dihydro-2H-pyran-4-yl)-5-ethyl-6-(4-(4-hydroxy-1-methyl-1H-pyrrolo[2,3-b]pyridine-5-carbonyl)piperazin-1-yl)-7-oxo-[1,2,4]triazolo[1,5-a]pyrimidin-4(7H)-yl)acetamide]: the IC50 in test [1] and in test [2] was below 100 nM throughout.

With `CCc1c(N2CCN(C(=O)CNC(=O)c3ccn(C)n3)CC2)c(=O)n2nc(C3=CCOCC3)nc2n1CC(=O)Nc1ccc(C(F)(F)F)cc1Cl` [Example 102, N-(2-(4-(4-(2-((2-Chloro-4-(trifluoromethyl)phenyl)amino)-2-oxoethyl)-2-(3,6-dihydro-2H-pyran-4-yl)-5-ethyl-7-oxo-4,7-dihydro-[1,2,4]triazolo[1,5-a]pyrimidin-6-yl)piperazin-1-yl)-2-oxoethyl)-1-methyl-1H-pyrazole-3-carboxamide], the concentration for half-maximal inhibition (IC50) in test [1] and in test [2] was below 100 nM each time.

`CCc1c(N2CCN(C(=O)CNC(=O)c3cc(C)no3)CC2)c(=O)n2nc(C3=CCOCC3)nc2n1CC(=O)Nc1ccc(C(F)(F)F)cc1Cl` [Example 130, N-(2-(4-(4-(2-((2-Chloro-4-(trifluoromethyl)phenyl)amino)-2-oxoethyl)-2-(3,6-dihydro-2H-pyran-4-yl)-5-ethyl-7-oxo-4,7-dihydro-[1,2,4]triazolo[1,5-a]pyrimidin-6-yl)piperazin-1-yl)-2-oxoethyl)-3-methylisoxazole-5-carboxamide]: the IC50 in test [1] and in test [2] was below 100 nM each time.

As for `CCc1c(N2CCN(C(=O)CNC(=O)c3ccno3)CC2)c(=O)n2nc(N3CCOCC3)nc2n1CC(=O)Nc1ccc(C(F)(F)F)cc1Cl` [Example 376, N-(2-(4-(4-(2-((2-Chloro-4-(trifluoromethyl)phenyl)amino)-2-oxoethyl)-5-ethyl-2-morpholino-7-oxo-4,7-dihydro-[1,2,4]triazolo[1,5-a]pyrimidin-6-yl)piperazin-1-yl)-2-oxoethyl) isoxazole-5-carboxamide], the 50% inhibitory concentration (IC50) in test [1] and in test [2] was below 100 nM throughout.

Regarding `CCc1c(N2CCN(C(=O)C(=O)Nc3ccn[nH]3)CC2)c(=O)n2nc(C3=CCOCC3)nc2n1CC(=O)Nc1ccc(C(F)(F)F)cc1Cl` [Example 333, 2-(4-(4-(2-((2-Chloro-4-(trifluoromethyl)phenyl)amino)-2-oxoethyl)-2-(3,6-dihydro-2H-pyran-4-yl)-5-ethyl-7-oxo-4,7-dihydro-[1,2,4]triazolo[1,5-a]pyrimidin-6-yl)piperazin-1-yl)-2-oxo-N-(1H-pyrazol-5-yl)acetamide], the 50% inhibitory concentration (IC50) in test [1] and in test [2] was below 100 nM throughout.

With `CCc1c(N2CCN(C(=O)CNC(=O)c3ncnc(C)c3O)CC2)c(=O)n2nc(C3=CCOCC3)nc2n1CC(=O)Nc1ccc(C(F)(F)F)cc1Cl` [Example 210, N-(2-(4-(4-(2-((2-Chloro-4-(trifluoromethyl)phenyl)amino)-2-oxoethyl)-2-(3,6-dihydro-2H-pyran-4-yl)-5-ethyl-7-oxo-4,7-dihydro-[1,2,4]triazolo[1,5-a]pyrimidin-6-yl)piperazin-1-yl)-2-oxoethyl)-5-hydroxy-6-methylpyrimidine-4-carboxamide], the IC50 in test [1] and in test [2] was below 100 nM in each case.

In the case of `CCc1c(N2CCN(C(=O)c3ncc4ccccc4c3O)CC2)c(=O)n2nc(C3=CCOCC3)nc2n1CC(=O)Nc1ccc(C(F)(F)F)cc1Cl` [Example 204, N-(2-Chloro-4-(trifluoromethyl)phenyl)-2-(2-(3,6-dihydro-2H-pyran-4-yl)-5-ethyl-6-(4-(4-hydroxyisoquinoline-3-carbonyl)piperazin-1-yl)-7-oxo-[1,2,4]triazolo[1,5-a]pyrimidin-4(7H)-yl)acetamide], the IC50 in test [1] and in test [2] was below 100 nM each time.

Turning to `CCc1c(N2CCN(C(=O)CNC(=O)CC3COC3)CC2)c(=O)n2nc(C3=CCOCC3)nc2n1CC(=O)Nc1ccc(C(F)(F)F)cc1Cl` [Example 273, N-(2-Chloro-4-(trifluoromethyl)phenyl)-2-(2-(3,6-dihydro-2H-pyran-4-yl)-5-ethyl-6-(4-((2-(oxetan-3-yl)acetyl)glycyl)piperazin-1-yl)-7-oxo-[1,2,4]triazolo[1,5-a]pyrimidin-4(7H)-yl)acetamide], the IC50 was 100 to 1000 nM in test [1] and below 100 nM in test [2].
